Publication PMC4901392 (Cell host & microbe, 2016)

Experiments:
ZigA = settings: read-out: apparent Km; Zn-bound ZigA (2 µM), 2 mM MgCl2, 150 mM NaCl, 20 mM Tris-HCl pH 8.0
[1] = biological target: ZigA (Zur-induced GTPase A) (A. baumannii); assay: SEC

Row | stoichiometry N [1] | Molecule | Km (ZigA) [µM]
1 | – | Nc1nc2c(ncn2[C@@H]2O[C@H](COP(=O)(O)OP(=O)(O)OP(=O)(O)O)[C@@H](O)[C@H]2O)c(=O)[nH]1 [GTP] | 150
2 | 2 | ZigA (Zur-induced GTPase A) (enzyme) | –
